In patent publication US20150335055A1, “BEVERAGE PR[…] BASED ON PIMARICIN AND HEADSPACE GAS” (PEPSICO, INC., priority 2013, published 2015):

Experiments:
spoilage organisms = assay: Degradation kinetic of pimaricin and onset of spoilage in carbonated beverage (Background Example 4); type: cell-based
Excerpt: In the absence of analytical data about the stability of pimaricin in solution, the interpretation of the data about the stability of product over time can be interpreted in one of two ways. Either no degradation of pimaricin occurred and product spoiled because of the outgrowth of those few organisms that were tolerant to the quantity of pimaricin present or spoilage occurred as a consequence of the survival and then outgrowth of organisms as a consequence of the degradation of pimaricin below some critical concentration. A strong argument for the latter is offered in Background Example 4, FIG. 4. Herein, the degradation of pimaricin is tracked from initial concentrations of 13 and 25 ppm in parallel with previously established incidence of spoilage in samples that initially contain 13 and 25 ppm. […] Product contains in excess of 2000 ppb O2.
In the presence of structurally intact pimaricin, spoilage organisms are inhibited from growth. Once the integrity of the bulk pimaricin is compromised, the organisms are able to grow. Regardless of initial concentration, pimaricin in 3.7 volume CO2 beverage will degrade at the same rate. Commonly, carbonated beverages contain a substantial amount of oxygen (>3500 ppb). Given a starting concentration of 13.5 ppm, the degradation of pimaricin is such that the concentration of pimaricin falls to below the minimum inhibitory concentration ( . . . ) at around 80 days. At this time, spoilage organisms begin to grow and induce spoilage (χ).

[1] = tested on: Zygosaccharomyces strains or Brettanomyces strains; assay: 16 week spoilage trial in carbonated lemon-lime beverage (Sierra Mist, 3.6 volumes CO2, PET), Comparative Example 1; type: cell-based; conditions: for samples spoiled: period of the test (14 weeks, 98 days), 25° C.
Method: […] This beverage is carbonated to 3.6 volumes CO2 in PET containers. Negative control containers received no inoculum. Positive control samples were inoculated with either Zygosaccharomyces strains (907, 28, Marion, HP, Mt. Dew, & SM Soiler) or Brettanomyces strains Dan, H2O2, Cherry 7-UP, 1601-1, and SY-05). […] All samples were then held at 25° C. for the duration of the study. […] 33% of the samples containing 15 ppm spoiled and 100% of samples containing 5 ppm pimaricin spoiled.

(IR,3S,5R,7R,8E,12R,14E,16E,18E,20E,22R,24S,25R,26S)-{[3S,4S,5S,6R)-4-amino-3,5-dihydroxy-6-methyloxan-2-yl]oxy}-1,3,26 trihydroxy-12-methyl-10-oxo-6,11,28-trioxatricyclo[22.3.1.0^5,7]octacosa-8,14,16,18,20 pentaene-25-carboxylic acid [pimaricin]
0%: Onset of Spoilage ([1]; 5 ppm Pimaricin, week 0, day 0) | Onset of Spoilage ([1]; 5 ppm Pimaricin, week 1, day 7) | Onset of Spoilage ([1]; 5 ppm Pimaricin, week 2, day 14) | Onset of Spoilage ([1]; 5 ppm Pimaricin, week 3, day 21) | Onset of Spoilage ([1]; 5 ppm Pimaricin, week 4, day 28) | Onset of Spoilage ([1]; 5 ppm Pimaricin, week 5, day 35) | Onset of Spoilage ([1]; 5 ppm Pimaricin, week 6, day 42) | Onset of Spoilage ([1]; 5 ppm Pimaricin, week 7, day 49) | Onset of Spoilage ([1]; 5 ppm Pimaricin, week 8, day 56) | Onset of Spoilage ([1]; 15 ppm Pimaricin, week 0, day 0) | Onset of Spoilage ([1]; 15 ppm Pimaricin, week 1, day 7) | Onset of Spoilage ([1]; 15 ppm Pimaricin, week 2, day 14) | Onset of Spoilage ([1]; 15 ppm Pimaricin, week 3, day 21) | Onset of Spoilage ([1]; 15 ppm Pimaricin, week 4, day 28) | Onset of Spoilage ([1]; 15 ppm Pimaricin, week 5, day 35) | Onset of Spoilage ([1]; 15 ppm Pimaricin, week 6, day 42) | Onset of Spoilage ([1]; 15 ppm Pimaricin, week 7, day 49) | Onset of Spoilage ([1]; 15 ppm Pimaricin, week 8, day 56) | Onset of Spoilage ([1]; 15 ppm Pimaricin, week 9, day 63) | Onset of Spoilage ([1]; 15 ppm Pimaricin, week 10, day 70) | Onset of Spoilage ([1]; 25 ppm Pimaricin, week 0, day 0) | Onset of Spoilage ([1]; 25 ppm Pimaricin, week 1, day 7) | Onset of Spoilage ([1]; 25 ppm Pimaricin, week 2, day 14) | Onset of Spoilage ([1]; 25 ppm Pimaricin, week 3, day 21) | Onset of Spoilage ([1]; 25 ppm Pimaricin, week 4, day 28) | Onset of Spoilage ([1]; 25 ppm Pimaricin, week 5, day 35) | Onset of Spoilage ([1]; 25 ppm Pimaricin, week 6, day 42) | Onset of Spoilage ([1]; 25 ppm Pimaricin, week 7, day 49) | Onset of Spoilage ([1]; 25 ppm Pimaricin, week 8, day 56) | Onset of Spoilage ([1]; 25 ppm Pimaricin, week 9, day 63) | Onset of Spoilage ([1]; 25 ppm Pimaricin, week 10, day 70) | Onset of Spoilage ([1]; 25 ppm Pimaricin, week 11, day 77) | Onset of Spoilage ([1]; 25 ppm Pimaricin, week 12, day 84) | Onset of Spoilage ([1]; 25 ppm Pimaricin, week 13, day 91) | Onset of Spoilage ([1]; 25 ppm Pimaricin, week 14, day 98) | Onset of Spoilage ([1]; 25 ppm Pimaricin, week 15, day 105) | Onset of Spoilage ([1]; 25 ppm Pimaricin, week 16, day 112) | Onset of Spoilage ([1]; 25 ppm Pimaricin, week 17, day 119) | Onset of Spoilage ([1]; 25 ppm Pimaricin, week 18, day 126) | Onset of Spoilage ([1]; 25 ppm Pimaricin, week 19, day 133) | Onset of Spoilage ([1]; 25 ppm Pimaricin, week 20, day 140) | Onset of Spoilage ([1]; 25 ppm Pimaricin, week 21, day 147) | Onset of Spoilage ([1]; 25 ppm Pimaricin, week 22, day 154) | Onset of Spoilage ([1]; 25 ppm Pimaricin, week 23, day 161) | Onset of Spoilage ([1]; 25 ppm Pimaricin, week 24, day 168)
33%: incidence of spoilage (spoilage organisms; initial concentration 13 ppm pimaricin, carbonated beverage 3.6 volumes CO2, in excess of 2000 ppb O2) | Onset of Spoilage ([1]; 15 ppm Pimaricin, week 11, day 77) | Onset of Spoilage ([1]; 15 ppm Pimaricin, week 12, day 84) | Onset of Spoilage ([1]; 15 ppm Pimaricin, week 13, day 91) | Onset of Spoilage ([1]; 15 ppm Pimaricin, week 14, day 98) | Onset of Spoilage ([1]; 15 ppm Pimaricin, week 15, day 105) | Onset of Spoilage ([1]; 15 ppm Pimaricin, week 16, day 112) | Onset of Spoilage ([1]; 15 ppm Pimaricin, week 17, day 119) | Onset of Spoilage ([1]; 15 ppm Pimaricin, week 18, day 126) | Onset of Spoilage ([1]; 15 ppm Pimaricin, week 19, day 133) | Onset of Spoilage ([1]; 15 ppm Pimaricin, week 20, day 140) | Onset of Spoilage ([1]; 15 ppm Pimaricin, week 21, day 147) | Onset of Spoilage ([1]; 15 ppm Pimaricin, week 22, day 154) | Onset of Spoilage ([1]; 15 ppm Pimaricin, week 23, day 161) | Onset of Spoilage ([1]; 15 ppm Pimaricin, week 24, day 168) | samples spoiled ([1]; 15 ppm pimaricin)
about 2 ppm: critical concentration of pimaricin (no spoilage above it) (spoilage organisms; 3.7 volume CO2 beverage)
no ensuing spoilage: spoilage from outgrowth of previously inoculated organisms (spoilage organisms; starting concentration 25 ppm pimaricin, 3.7 volume CO2 beverage)
100%: Onset of Spoilage ([1]; 5 ppm Pimaricin, week 11, day 77) | Onset of Spoilage ([1]; 5 ppm Pimaricin, week 12, day 84) | Onset of Spoilage ([1]; 5 ppm Pimaricin, week 13, day 91) | Onset of Spoilage ([1]; 5 ppm Pimaricin, week 14, day 98) | Onset of Spoilage ([1]; 5 ppm Pimaricin, week 15, day 105) | Onset of Spoilage ([1]; 5 ppm Pimaricin, week 16, day 112) | Onset of Spoilage ([1]; 5 ppm Pimaricin, week 17, day 119) | Onset of Spoilage ([1]; 5 ppm Pimaricin, week 18, day 126) | Onset of Spoilage ([1]; 5 ppm Pimaricin, week 19, day 133) | Onset of Spoilage ([1]; 5 ppm Pimaricin, week 20, day 140) | Onset of Spoilage ([1]; 5 ppm Pimaricin, week 21, day 147) | Onset of Spoilage ([1]; 5 ppm Pimaricin, week 22, day 154) | Onset of Spoilage ([1]; 5 ppm Pimaricin, week 23, day 161) | Onset of Spoilage ([1]; 5 ppm Pimaricin, week 24, day 168) | samples spoiled ([1]; 5 ppm pimaricin)
remain free of spoilage: freedom from spoilage for duration of shelf-life ([1]; samples which contained 25 ppm pimaricin)
1.5-2 ppm: pimaricin concentration below which spoilage ensues (spoilage organisms; intersect of time of onset of spoilage and degradation plot for 13 ppm pimaricin)
75%: Onset of Spoilage ([1]; 5 ppm Pimaricin, week 9, day 63) | Onset of Spoilage ([1]; 5 ppm Pimaricin, week 10, day 70)
> 80 days: incubation time before spoilage (spoilage organisms; initial concentration 13 ppm pimaricin, carbonated beverage 3.6 volumes CO2)
None: samples spoiled ([1]; equivalent of 30 mg pimaricin per ml)
around 80 days: time at which pimaricin concentration falls below the minimum inhibitory concentration (spoilage organisms; starting concentration 13.5 ppm, 3.7 volume CO2 beverage)
did not suffer any spoilage: spoilage among samples evaluated (spoilage organisms; product containing 25 ppm pimaricin, carbonated beverage 3.6 volumes CO2)
